Experimental findings from US11780851B2, “LRRK2 inhibitors” (H. Lundbeck A/S, priority 2021, dated 2023) are described below.

The target in one assay is T1, LRRK2 G2019S (Homo sapiens, UniProt Q5S007, G2019S).
T1 construct: purchased Invitrogen (Life Technologies Corporation)
Kind of assay: LRRK2 G2019S kinase activity assay (LanthaScreen TR-FRET). Format: biochemical. The following applies: 250 pM LRRK2 G2019S, 1.3 mM ATP, 3 h at 30° C.; n≥2 tests. The protocol:
(§1) LRRK2 kinase activity was measured using a LanthaScreen kinase activity assay available from Invitrogen (Life Technologies Corporation). The assay is a homogeneous time resolved-fluorescence resonance energy transfer (TR-FRET) assay that measures phosphorylation of a fluorescein-labelled peptide substrate Fluorescein-ERM LRRKtide obtainable from Life Technologies Corporation as a result of LRRK2 kinase activity. The phosphorylated peptide is recognized by a terbium-labelled phospho-specific anti-LRRKtide antibody (pLRRKtide antibody), obtainable from Life Technologies Corporation and, subsequently, the phosphorylated LRRKtide can be quantified by the extent of TR-FRET between the terbium donor and fluorescein acceptor. The LRRK2 kinase was obtained from Invitrogen (Life Technologies Corporation) and comprises residue 970 to 2527 of the full length human wild-type LRRK2 kinase, or a similar sequence with the G2019S mutation. As discussed above, this mutation increases the kinase activity relative to the wild type. The kinase reactions were performed in a 20 μL volume in 384-well plates. […] The mixture was further incubated for 30 minutes at RT. […] The measurement was repeated 30 times for fluorescein and 30 times for terbium emission with a 1000 μs time window between repeats. TR-FRET measurements were performed on a Biotek Synergy plate. The TR-FRET signal was calculated as the emission-ratio at 520 nm over 495 nm. The TR-FRET ratio readout for test compounds was normalized to 0% inhibition corresponding to TR-FRET ratio measured in control wells with no inhibition of the kinase activity and 100% inhibition corresponding to TR-FRET ratio measured in control wells with inhibitor. […] C is the IC50 value and D is the Hill slope coefficient. IC50 estimates were obtained from independent experiment and the logarithmic average was calculated.
A general note: Time-resolved FRET reads energy transfer from a long-lived donor to a nearby acceptor.

The next assay concerns the target T2, LRRK2 WT (Homo sapiens, UniProt Q5S007).
T2 construct: comprises residue 970 to 2527 of the full length human wild-type LRRK2 kinase; purchased Invitrogen (Life Technologies Corporation)
Nature of the assay: LRRK2 wild-type kinase activity assay (LanthaScreen TR-FRET). Format: biochemical. The settings on record: 1 nM LRRK2 WT, 1.3 mM ATP, 3.5 h at 30° C.; n≥2 tests. The protocol:
as §1

T2 sequence (Q5S007 970-2527): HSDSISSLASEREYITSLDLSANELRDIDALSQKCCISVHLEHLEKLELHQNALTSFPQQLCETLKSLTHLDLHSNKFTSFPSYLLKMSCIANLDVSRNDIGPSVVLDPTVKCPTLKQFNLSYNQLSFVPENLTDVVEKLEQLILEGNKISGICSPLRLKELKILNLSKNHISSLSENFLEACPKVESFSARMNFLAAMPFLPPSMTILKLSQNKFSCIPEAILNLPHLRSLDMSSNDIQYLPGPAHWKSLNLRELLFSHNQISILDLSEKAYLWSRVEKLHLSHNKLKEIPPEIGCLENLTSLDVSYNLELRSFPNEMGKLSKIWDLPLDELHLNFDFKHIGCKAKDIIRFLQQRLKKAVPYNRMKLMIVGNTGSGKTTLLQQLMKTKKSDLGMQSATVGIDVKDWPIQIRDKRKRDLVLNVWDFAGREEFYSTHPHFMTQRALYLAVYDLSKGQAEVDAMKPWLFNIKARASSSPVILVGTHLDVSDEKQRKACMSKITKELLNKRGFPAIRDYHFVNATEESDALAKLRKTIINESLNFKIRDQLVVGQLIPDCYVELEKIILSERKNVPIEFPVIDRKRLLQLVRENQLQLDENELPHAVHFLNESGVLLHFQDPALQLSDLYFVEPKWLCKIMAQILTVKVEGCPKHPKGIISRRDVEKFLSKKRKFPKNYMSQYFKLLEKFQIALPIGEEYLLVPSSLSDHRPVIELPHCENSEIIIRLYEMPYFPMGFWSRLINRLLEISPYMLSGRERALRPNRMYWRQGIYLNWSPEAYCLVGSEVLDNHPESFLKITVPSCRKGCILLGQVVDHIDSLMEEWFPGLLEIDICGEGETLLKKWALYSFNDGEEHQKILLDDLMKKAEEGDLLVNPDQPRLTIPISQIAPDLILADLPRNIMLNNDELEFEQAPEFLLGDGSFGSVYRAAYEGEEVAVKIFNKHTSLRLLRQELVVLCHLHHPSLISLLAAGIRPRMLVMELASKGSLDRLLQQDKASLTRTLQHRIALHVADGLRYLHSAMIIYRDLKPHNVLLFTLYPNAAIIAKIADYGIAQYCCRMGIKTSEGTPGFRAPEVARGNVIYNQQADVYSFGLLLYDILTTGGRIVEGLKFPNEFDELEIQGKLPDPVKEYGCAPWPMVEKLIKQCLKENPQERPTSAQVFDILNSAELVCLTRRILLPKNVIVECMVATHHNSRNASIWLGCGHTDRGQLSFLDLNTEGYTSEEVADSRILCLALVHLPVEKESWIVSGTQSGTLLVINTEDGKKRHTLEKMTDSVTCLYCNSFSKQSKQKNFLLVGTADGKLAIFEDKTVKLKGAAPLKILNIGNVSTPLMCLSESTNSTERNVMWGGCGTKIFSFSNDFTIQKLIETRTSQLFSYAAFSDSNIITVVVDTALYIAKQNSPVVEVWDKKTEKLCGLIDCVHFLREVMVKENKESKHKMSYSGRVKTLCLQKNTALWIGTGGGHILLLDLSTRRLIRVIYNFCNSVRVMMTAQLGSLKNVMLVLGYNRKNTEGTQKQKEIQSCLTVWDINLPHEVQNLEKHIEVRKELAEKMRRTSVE
T1 sequence (Q5S007 970-2527 G2019S): as the sequence (Q5S007 970-2527) above, with G1050S counted along it

The term IC50 denotes the concentration needed to halve the response being measured. With `Cc1c2c(nn1[C@@H]1CC1(F)F)OCCCn1nc(Cl)c3cnc(nc31)N2` (single isomer, unassigned) [Example 39, (−)-(R) or (S)-8-Chloro-2-(2,2-difluorocyclopropyl)-3-methyl-2,4,12,13-tetrahydro-11H-5,7-(azenometheno)dipyrazolo[3,4-b:5′,1′-g][1]oxa[4,6,8]triazacycloundecine], the values for the IC50 on LRRK2 G2019S and on LRRK2 WT were 7.8 nM and 19 nM, respectively.
The matching figures for `CCc1c2c(nn1[C@@H]1CCOC[C@H]1F)OCCCn1nc(Cl)c3cnc(nc31)N2` (single isomer, unassigned) [Example 55, (+)-8-Chloro-3-ethyl-2-((3R,4S) or (3S,4R)-3-fluorotetrahydro-2H-pyran-4-yl)-2,4,12,13-tetrahydro-11H-5,7-(azenometheno)dipyrazolo[3,4-b:5′,1′-g][1]oxa[4,6,8]triazacycloundecine]: 1.5 nM and 5.6 nM.
As to `[2H]C1([2H])CCn2nc(Cl)c3cnc(nc32)Nc2c(nn(C3CCOCC3)c2C)O1` [Example 46, 8-Chloro-3-methyl-2-(tetrahydro-2H-pyran-4-yl)-2,4,12,13-tetrahydro-11H-5,7-(azenometheno)dipyrazolo[3,4-b:5′,1′-g][1]oxa[4,6,8]triazacycloundecine-13,13-d2], the 50% inhibitory concentration (IC50) turned out to be 3.1 nM at LRRK2 G2019S and 12 nM on LRRK2 WT.
The matching figures for `Cc1c2c(nn1C1(C#N)CC1)OCCCn1nc(Cl)c3cnc(nc31)N2` [Example 36, 1-(8-Chloro-3-methyl-12,13-dihydro-11H-5,7-(azenometheno)dipyrazolo[3,4-b:5′,1′-g][1]oxa[4,6,8]triazacycloundecin-2(4H)-yl)cyclopropane-1-carbonitrile]: 7.2 nM and 23 nM.
`[2H]C([2H])([2H])c1c2c(nn1C1CCOCC1)OC([2H])([2H])C([2H])([2H])C([2H])([2H])n1nc(Cl)c3cnc(nc31)N2` [Example 35, 8-Chloro-3-(methyl-d3)-2-(tetrahydro-2H-pyran-4-yl)-2,4,12,13-tetrahydro-11H-5,7-(azenometheno)dipyrazolo[3,4-b:5′,1′-g][1]oxa[4,6,8]triazacycloundecine-11,11,12,12,13,13-d6]: the IC50 at LRRK2 G2019S worked out at 5.3 nM; at LRRK2 WT, 15 nM.
Take `[2H]C([2H])([2H])c1c2c(nn1[C@@H]1CCOC[C@H]1F)OCCCn1nc(Cl)c3cnc(nc31)N2` (single isomer, unassigned) [Example 63, (+)-8-Chloro-2-((3R,4S) or (3S,4R)-3-fluorotetrahydro-2H-pyran-4-yl)-3-(methyl-d3)-2,4,12,13-tetrahydro-11H-5,7-(azenometheno)dipyrazolo[3,4-b:5′,1′-g][1]oxa[4,6,8]triazacycloundecine]: the results for the IC50 at LRRK2 G2019S and at LRRK2 WT were 4 nM and 11 nM, respectively.
In the same order, the values of `Cc1c2c(nn1[C@@H]1CCOC[C@@H]1C)OCCCn1nc(Cl)c3cnc(nc31)N2` (single isomer, unassigned) [Example 24, 8-Chloro-3-methyl-2-((3R,4S) or (3S,4R) or (3S,4S) or (3R,4R)-3-methyltetrahydro-2H-pyran-4-yl)-2,4,12,13-tetrahydro-11H-5,7-(azenometheno)dipyrazolo[3,4-b:5′,1′-g][1]oxa[4,6,8]triazacycloundecine] are 4.7 nM and 14 nM.
The matching figures for `Cc1c2c(nn1[C@H]1CCOC[C@]1(C)F)OCCCn1nc(Cl)c3cnc(nc31)N2` (single isomer, unassigned) [Example 48, (−)-8-Chloro-2-((3R,4S) or (3S,4R)-3-Fluoro-3-methyltetrahydro-2H-pyran-4-yl)-3-methyl-2,4,12,13-tetrahydro-11H-5,7-(azenometheno)dipyrazolo[3,4-b:5′,1′-g][1]oxa[4,6,8]triazacycloundecine]: 18 nM and 90 nM.
